The source of these data is article PMC7642680, “The Nontypeable Haemophilus influenzae Major Adhesin Hia Is a Dual-Function Lectin That Binds to Human-Specific Respiratory Tract Sialic Acid Glycan Receptors” (mBio, 2020).

SMILES strings stand for the structures. Where two headings read alike, the source gives them in different places.

For test [1], the target named is T1, Hia (full-length, expressed on E. coli BL21) (Haemophilus influenzae, UniProt Q8GM79).
T1 construct: trimeric autotransporter
The test is described as follows: SPR, Hia-expressing BL21 cells immobilised (Biacore C1 chip). The note with it: 1x PBS pH 7.4; single-cycle kinetics; whole cells. The format is cell-based. Background: SPR reads the build-up and loss of mass on a sensor chip optically.

Test [2] has as its target Hia (full-length, expressed on E. coli BL21) (Haemophilus influenzae, UniProt Q8GM79, D618K). The note with it: 1x PBS pH 7.4, whole cells. From the text:
(§1) SPR, Hia-expressing BL21 cells immobilised (Biacore C1 chip) on Hia (full-length, expressed on E. coli BL21)

The target of test [3] is T2, Hia (full-length, expressed on E. coli BL21) (Haemophilus influenzae, UniProt Q8GM79, A619R). Particulars: read-out: 2-3 SLN-Ac; 1x PBS pH 7.4; whole cells.
Source text: as §1

In test [4] the target is T2, Hia (full-length, expressed on E. coli BL21). The note with it: read-out: NB, OneStep injection at 10 μM, whole cells. From the text:
SPR, OneStep injection, Hia-expressing BL21 cells on Hia (full-length, expressed on E. coli BL21)

Test [5] has as its target Hia BD1 (binding domain 1) (Haemophilus influenzae, UniProt Q8GM79). The test is described as follows: SPR, purified BD1 immobilised (Biacore CM5 amine capture). The note with it: 1x PBS pH 7.4; single-cycle kinetics.

The molecule `CC(=O)N[C@H]1[C@H](O[C@H]2[C@@H](O)[C@@H](CO)O[C@@H](O[C@H]3[C@H](O)[C@@H](O)C(O)O[C@@H]3CO)[C@@H]2O)O[C@H](CO)[C@@H](O[C@@H]2O[C@H](CO)[C@H](O)[C@H](O[C@@]3(C(=O)O)C[C@H](O)[C@@H](NC(C)=O)[C@H]([C@H](O)[C@H](O)CO)O3)[C@H]2O)[C@@H]1O` (stereo partly shown) [2-3 Ac-SLNnT] displayed a Kd in test [1] of 2030 ± 1490 nM.
As for `CC(=O)N[C@H]1[C@H](O[C@H]2[C@@H](O)[C@@H](CO)O[C@@H](O[C@H]3[C@H](O)[C@@H](O)C(O)O[C@@H]3CO)[C@@H]2O)O[C@H](CO)[C@@H](O[C@@H]2O[C@H](CO)[C@H](O)[C@H](O[C@@]3(C(=O)O)C[C@H](O)[C@@H](NC(=O)CO)[C@H]([C@H](O)[C@H](O)CO)O3)[C@H]2O)[C@@H]1O` (stereo partly shown) [2-3 Gc-SLNnT], the Kd in test [1] was 5440 ± 1110 nM.
Turning to `CC(=O)N[C@H]1[C@H]([C@H](O)[C@H](O)CO)O[C@@](O[C@H]2[C@@H](O)[C@@H](CO)O[C@@H](O[C@H]3[C@H](O)[C@@H](NC(C)=O)C(O)O[C@@H]3CO)[C@@H]2O)(C(=O)O)C[C@@H]1O` (stereo partly shown) [2-3 SLN-Ac], the Kd in test [1] is 2030 ± 443 nM; in test [2] (read-out: 2-3 SLN-Ac), 842 ± 178 nM; in test [3], 3040 ± 700 nM.
In test [1], `CC(=O)N[C@H]1C(O)O[C@H](CO)[C@@H](O[C@@H]2O[C@H](CO)[C@H](O)[C@H](O[C@@]3(C(=O)O)C[C@H](O)[C@@H](NC(=O)CO)[C@H]([C@H](O)[C@H](O)CO)O3)[C@H]2O)[C@@H]1O` (stereo partly shown) [2-3 SLN-Gc] registered a Kd of 10100 ± 320 nM.
For `CC(=O)N[C@H]1[C@H]([C@H](O)[C@H](O)CO)O[C@](OC[C@H]2O[C@@H](O[C@H]3[C@H](O)[C@@H](NC(C)=O)C(O)O[C@@H]3CO)[C@H](O)[C@@H](O)[C@H]2O)(C(=O)O)C[C@@H]1O` (stereo partly shown) [2-6 SLN-Ac], the Kd was 185 ± 59.9 nM in test [1], more than 10000 nM in test [4], 21 ± 1 nM in test [2] (read-out: 2-6 SLN-Ac) and 64.9 ± 5.6 nM in test [5].
